# Reference: patent publication US9133157B2, “HIV protease inhibitors” (Merck Canada Inc., priority 2011, dated 2015)
# Target: WT HIV-1 protease (Human immunodeficiency virus type 1 group M subtype B (isolate HXB2) (HIV-1), UniProt P04585)
# Assay: Assay for inhibition of microbial expressed HIV protease (Procedure A, peptide substrate, HPLC fluorescence detection)
# Assay type: biochemical
# Settings: WT HIV-1 protease 10 pM, substrate 400 micromolar, pH 5.5, 30 min preincubation, 1 hour at 30° C.; read-out: Enzyme inhibition IC50
# Outline: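 E. coli-expressed enzyme preincubated 30 min at room temperature with compound in 50 mM sodium acetate pH 5.5, 100 mM NaCl, 0.1% BSA. Reaction ran 1 h at 30° C with 400 micromolar Val-Ser-Gln-Asn-(betanaphthyl)Ala-Pro-Ile-Val substrate and 10 picomolar protease. After phosphoric acid quench, product was measured by C18 HPLC with fluorescence (ex 270/em 330 nm).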
row,Compound,IC50 [nM]
1,"COC(=O)N[C@H](C(=O)N[C@H](c1ccc([C@@H](CO)N(CCC(C)(C)C)S(=O)(=O)c2ccc(N)cc2F)s1)C(F)(F)F)C(c1ccccc1)c1ccccc1 [Example 98, N-[(1S)-1-{5-[(1R)-1-{[(4-amino-2-fluorophenyl)sulfonyl](3,3-dimethylbutyl)amino}-2-hydroxyethyl]thiophen-2-yl}-2,2,2-trifluoroethyl]-Nα-(methoxycarbonyl)-β-phenyl-L-phenylalaninamide]",0.44
2,"COC(=O)N[C@H](C(=O)N[C@H](c1ccc([C@@H](CO)N(CCC(C)(C)C)S(=O)(=O)c2cn3ccnc3cn2)s1)C(F)(F)F)C(c1ccccc1)c1ccccc1 [Example 99, N-[(1S)-1-(5-{(1R)-1-[(3,3-dimethylbutyl)(imidazo[1,2-a]pyrazin-6-ylsulfonyl)amino]-2-hydroxyethyl}thiophen-2-yl)-2,2,2-trifluoroethyl]-Nα-(methoxycarbonyl)-β-phenyl-L-phenylalaninamide]",3.39
3,"COC(=O)N[C@H](C(=O)N[C@H](c1ccc([C@@H](CO)N(CCC(C)(C)C)S(=O)(=O)c2ccc3ncsc3c2)s1)C(F)(F)F)C(c1ccccc1)c1ccccc1 [Example 100, N-[(1S)-1-(5-{(1R)-1-[(1,3-benzothiazol-6-ylsulfonyl)(3,3-dimethylbutyl)amino]-2-hydroxyethyl}thiophen-2-yl)-2,2,2-trifluoroethyl]-Nα-(methoxycarbonyl)-β-phenyl-L-phenylalaninamide]",0.9
4,"COC(=O)N[C@H](C(=O)N[C@H](c1ccc([C@@H](CO)N(CCC(C)(C)C)S(=O)(=O)c2ccc3nn[nH]c3c2)s1)C(F)(F)F)C(c1ccccc1)c1ccccc1 [Example 101, N-[(1S)-1-(5-{(1R)-1-[(1H-benzotriazol-6-ylsulfonyl)(3,3-dimethylbutyl)amino]-2-hydroxyethyl}thiophen-2-yl)-2,2,2-trifluoroethyl]-Nα-(methoxycarbonyl)-β-phenyl-L-phenylalaninamide]",0.84
5,"COC(=O)N[C@H](C(=O)N[C@H](c1ccc([C@@H](CO)N(CCC(C)(C)C)S(=O)(=O)c2ccc3cn[nH]c3c2)s1)C(F)(F)F)C(c1ccccc1)c1ccccc1 [Example 102, N-[(1S)-1-(5-{(1R)-1-[(3,3-dimethylbutyl)(1H-indazol-6-ylsulfonyl)amino]-2-hydroxyethyl}thiophen-2-yl)-2,2,2-trifluoroethyl]-Nα-(methoxycarbonyl)-β-phenyl-L-phenylalaninamide]",0.63
6,"COC(=O)N[C@H](C(=O)N[C@H](c1ccc([C@@H](CO)N(CCC(C)(C)C)S(=O)(=O)c2ccc3[nH]ccc3c2)s1)C(F)(F)F)C(c1ccccc1)c1ccccc1 [Example 103, N-[(1S)-1-(5-{(1R)-1-[(3,3-dimethylbutyl)(1H-indol-5-ylsulfonyl)amino]-2-hydroxyethyl}thiophen-2-yl)-2,2,2-trifluoroethyl]-Nα-(methoxycarbonyl)-β-phenyl-L-phenylalaninamide]",6.14
7,"COC(=O)N[C@H](C(=O)N[C@H](c1ccc([C@@H](CO)N(CCC(F)(F)F)S(=O)(=O)c2ccc3ncsc3c2)s1)C(F)(F)F)C(c1ccccc1)c1ccccc1 [Example 104, N-[(1S)-1-(5-{(1R)-1-[(1,3-benzothiazol-6-ylsulfonyl)(3,3,3-trifluoropropyl)amino]-2-hydroxyethyl}thiophen-2-yl)-2,2,2-trifluoroethyl]-Nα-(methoxycarbonyl)-β-phenyl-L-phenylalaninamide]",0.85
8,"COC(=O)N[C@H](C(=O)N[C@H](c1ccc([C@@H](CO)N(CCCC(F)(F)F)S(=O)(=O)c2ccc3ncsc3c2)s1)C(F)(F)F)C(c1ccccc1)c1ccccc1 [Example 105, N-[(1S)-1-(5-[(1R)-1-[(1,3-benzothiazol-6-ylsulfonyl)(4,4,4-trifluorobutyl)amino]-2-hydroxyethyl}thiophen-2-yl)-2,2,2-trifluoroethyl]-Nα-(methoxycarbonyl)-β-phenyl-L-phenylalaninamide]",1.77
